Test results: patent US20220323406A1, “METHODS AND COMPOSITIONS FOR DIFFERENTIATING STEM CELLS” (Massachusetts Institute of Technology, priority 2019, published 2022)
“Also recorded” adds a separate entry of the source.

B1: R-spondin1: a potent WNT agonist (protein, UniProt Q2MKA7 21-263, looked up)
R-spondin-1: SRGIKGKRQRRISAEGSQACAKGCELCSEVNGCLKCSPKLFILLERNDIRQVGVCLPSCPPGYFDARNPDMNKCIKCKIEHCEACFSHNFCTKCKEGLYLHKGRCYPACPEGSSAANGTMECSSPAQCEMSEWSPWGPCSKKQQLCGFRRGSEERTRRVLHAPVGDHAACSDTKETRRCTVRRVPCPEGQKRRKGGQGRRENANRNLARKESKEAGAGSRRRKGQQQQQQQGTVGPLTSAGPA

Tests used:
[1] = system: lysozyme (LYZ) in intestinal organoids; experiment: Western blotting of lysozyme in 3D-cultured intestinal organoids; assay type: cell-based, mouse; conditions: ENR+CV, ENR+CD or ENR, 6 days
From the text: Western blotting. ISC-enriched organoids cultured in 3D Matrigel with ENRCV media were passaged to 24-well plate in 3D Matrigel with ENRCV. At day zero, media were replaced to ENR or ENRCD with or without indicated compounds, and media were replaced every other day. At day six, cells were harvested from Matrigel by mechanical disruption and suspended in basal media. Cell pellets were lysed with Pierce® IP lysis buffer (ThermoFisher, 87787) containing Halt™ Protease Inhibitor Cocktail, EDTA-Free (ThermoFisher, 87785) after 3-minute centrifuge at 300×g at 4° C. Cell extracts were resolved by NuPAGE® SDS-PAGE Gel system (ThermoFisher) and electroblotted onto polyvinylidene difluoride membranes using Criterion™ Blotter (Biorad). The membranes were blocked with 2% Blotting-Grade Blocker (Biorad, 1706404) in TBS-T (50 mM Tris-HCl, 150 mM NaCl, and 0.1% Tween 20, pH 8.0) and then probed with appropriate antibodies. Detection was performed using ECL Select™ Western Blotting Detection Reagent (Amersham, 45-000-999) and ImageQuant LAS4000 (GE Healthcare).
Western blotting. Organoid-containing gel was homogenized in basal medium and centrifuged at 300 rcf for 3 min. Organoid pellet was lysed with ice-cold Pierce IP Lysis Buffer (Thermo Fisher Scientific, #87787) containing Halt Protease Inhibitor Cocktail, EDTA-Free (Thermo Fisher Scientific, #87785) and incubated on ice for 20 min. The lysate was centrifuged at 17,000 rcf for 10 min, and the supernatant was combined with NuPAGE LDS Sample Buffer (Thermo Fisher Scientific, NP0007). Protein concentration was determined by Pierce 660 nm Protein Assay (Thermo Fisher Scientific, #22660) and normalized to the lowest concentration among each sample set. […] Chemiluminescent signals were detected by LAS4000 (GE Healthcare) using Amersham ECL Select Western Blotting Detection Reagent (GE Healthcare, #45-000-999), and total protein signals were obtained by Odyssey Imaging System (LI-COR Biosciences) using REVERT Total Protein Stain Kit (LI-COR Biosciences, #926-11010).

[2] = Roberts et al, 1986; cited from earlier work
[3] = Newlands et al, 1996; cited from earlier work
[4] = system: Paneth cells in ENR+CD organoids; experiment: Flow cytometry of 3D-cultured intestinal organoids, Paneth cells (lysozyme-positive, CD24-positive); assay type: cell-based, mouse; conditions: 160 nM KPT-8602 or 2 ng/mL Leptomycin B, ENR+CD 6 days
From the text: Flow cytometry analysis (3D culture). ISC-enriched organoids cultured in 3D Matrigel with ENRCV media were passaged to 24-well plate in 3D Matrigel with ENRCV. At day zero, media were replaced to ENRCD with or without indicated compounds, and media were replaced every other day. At day six, cells were washed with basal media, and then harvested from Matrigel by mechanical disruption in TrypLE Express (ThermoFisher, 12605010) to remove Matrigel and dissociate organoids to single cells. After vigorous pipetting and incubation at 37° C. for 20 min, dissociated organoids were strained through a 35 μm cell strainer into a tube (Falcon, 352235). […] Cell pellets were resuspended in FACS buffer (2% FBS in PBS), and then transferred to an ultra low-bind 96-well plate (Corning, 7007). Cells were stained with Zombie-violet viability dye (BioLegend, 423107) at 100× for viability staining and/or antibody staining solution. FITC-conjugated antibody for lysozyme (Dako, F0372) and APC-conjugated antibody for CD24 (BioLegend, 138505) were used at 100× dilution. Flow cytometry was performed using an LSR Fortessa (BD; Koch Institute Flow Cytometry Core at MIT). The data were analyzed using FlowJo v10 software.
The results of primary and secondary screening reflect a mixture of potential effects arising from small molecule treatment which may result in increases in total LYZ secretion. This includes contributions from enhanced Paneth cell differentiation, altered Paneth cell activity and changes in total cell number concurrent with differentiation. To better inform how the 6 compounds identified in the screen increased total secreted LYZ, and to isolate only those which enhance Paneth differentiation robustly, Applicants next utilized flow cytometry to measure the changes in Paneth cell representation within the treated organoids. […] Single live cells were selected by several gating strategies and Paneth cells were identified as lysozyme-high, CD24-mid, side scatter-high (SSC-high) (FIG. 27E). […] To evaluate whether the culture media supplements C and D may alter the effects of the 6 hits, Applicants also performed lysozyme assay in the canonical ENR culture condition in 3-D (because Paneth cells exist in an immature state within ENR, Applicants were unable to robustly quantify Paneth cell number via flow cytometry).
Flow cytometry. ISC-enriched organoids in 3D Matrigel culture were passaged to a 48-well plate and induced differentiation for 6 days by ENR+CD media containing DMSO or each drug indicated in the figures. DMSO- or drug-containing media were changed every other day. On day 6, cells were washed twice with basal media, then harvested from Matrigel by the mechanical disruption in TrypLE Express (Thermo, #12605010) to remove Matrigel and dissociate organoids to single cells. After vigorous pipetting and incubation at 37° C. for 15 min, the cell solution was diluted twice with basal media and centrifuged at 300 ref for 3 min. The cell pellet was resuspended in FACS buffer (PBS containing 2% FBS) and replaced into a 96-well Clear Round Bottom Ultra-Low Attachment Microplate (Corning, #7007). The cell solution was centrifuged again at 300 rcf for 3 min at 4° C. to pellet the cells. Cells were stained with Zombie-violet dye (BioLegend, #423113) at 100× for viability staining for 20 min at RT in the dark. After centrifugation for 3 min at 300 rcf, cells were fixed in fixation buffer (FACS buffer containing 1% formaldehyde (Thermo, #28906)) for 15 min on ice in the dark. Cells were centrifuged again for 3 min at 300 rcf and blocked with staining buffer (FACS buffer containing 0.5% Tween20 (Sigma, P2287)) for 15 min at RT in the dark. Pelleted cells by the centrifugation for 3 min at 300 rcf are stained with FITC-conjugated anti-lysozyme antibody (Dako, F0372) and APC-conjugated anti-CD24 antibody (Biolegend, #138505) at 100× for 45 min at RT in the dark.

intestinal organoids = experiment: Population RNA-sequencing of treated organoids; assay type: cell-based, mouse; conditions: ENR+CV, ENR+CD or ENR
Experimental: Population RNA-sequencing. Population RNA-seq was performed using a derivative of the Smart-Seq2 protocol for single cells. In brief, organoid media was aspirated and RLT+BME (Qiagen) was added to each well, and plate shaken for 30 minutes to fully lyse. Lysate was aliquoted into 4 identical fractions and stored at −80° C. until reverse transcription. RNA lysate was thawed and cleaned with a 2.2×SPRI ratio using Agencourt RNAClean XP beads (Beckman Coulter, A63987). RNA-seq was performed on a bulk population of sorted basal cells using Smart-Seq2 chemistry, starting with a 2.2×SPRI ratio cleanup. After oligo-dT priming, Maxima H Minus Reverse Transcriptase (ThermoFisher EP0753) was used to synthesize cDNA with an elongation step at 52° C. before PCR amplification (15 cycles for tissue, 18 cycles for sorted basal cells) using KAPA HiFi PCR Mastermix (Kapa Biosystems KK2602). Sequencing libraries were prepared using the Nextera XT DNA tagmentation kit (Illumina FC-131-1096) with 250 pg input for each sample. Libraries were pooled post-Nextera and cleaned using Agencourt AMPure SPRI beads with successive 0.7× and 0.8× ratio SPRIs and sequenced with an Illumina 75 Cycle NextSeq500/550v2 kit (Illumina FC-404-2005) with loading density at […], with paired end 35 cycle read structure. Samples were sequenced at an average read depth of 8.44 million reads per sample and a total of 96 samples.
Organoid samples were aligned to the Mm10 genome and transcriptome using STAR and RSEM. […] For module scoring with the in vivo Paneth and enteroendocrine cell-defining genes, Applicants used previously published gene sets and computed per sample module scores through the Seurat package.

ISCs / Paneth cells = conditions: Hayase et al., 2017; cited from earlier work

Row | Molecule | LYZ abundance per-mass protein (Western blot) [1] | tolerability in animals [2] | tolerability in humans [3] | Paneth cell representation / proportion in organoids [4] | Paneth cell representation / proportion in organoids ([4]; listed as leptomycin B) | secretory cell gene set scores (Paneth, goblet, EEC) from bulk transcripts (intestinal organoids) | alpha-defensin secretion and dysbiosis in mice with GvHD (ISCs / Paneth cells)
1 | CCC(=C/[C@H](C)C/C=C/C(C)=C/[C@@H](C)C(=O)[C@@H](C)[C@H](O)[C@@H](C)C/C(C)=C/C(=O)O)/C=C/[C@@H]1OC(=O)C=C[C@@H]1C [Leptomycin B] | appreciably increase LYZ abundance | poorly tolerated with marked gastrointestinal toxicity | poorly tolerated with marked gastrointestinal toxicity | statistically significant increases in Paneth cell representation; also recorded: statistically significant increases in the Paneth cell fraction | increased the proportion of PC | – | –
2 | NC(=O)/C(=C/n1cnc(-c2cc(C(F)(F)F)cc(C(F)(F)F)c2)n1)c1cncnc1 [KPT-8602] | appreciably increase LYZ abundance | – | – | statistically significant increases in Paneth cell representation; also recorded: statistically significant increases in the Paneth cell fraction; also recorded: increased the proportion of PC | – | increase secretory cells (Paneth, goblet, and EEC) | –
3 | B1 | – | – | – | – | – | – | elevate the secretion of alpha-defensins and resolve dysbiosis seen in mice with GvHD
